In paper PMC6338644 (The FASEB Journal, 2018):

How the values were obtained:
[1] = test system: Immortalized human podocytes; experiment: Glucose uptake assay in podocytes; format: cell-based
Procedure: (§1) Immortalized human podocytes were maintained as previously described ([10]). […] Podocytes were lysed as previously described ([21]).
(§2) Glucose uptake assay and On-Cell Western were performed essentially as in Tolvanen et al. ([19]). […] Cells were transferred on ice; incubated with anti-HA IgG in serum-free medium for 15 min, followed by additional incubation in fresh cell differentiation medium for 15 min at +37°C; and fixed with 2% paraformaldehyde for 20 min. Cells were incubated with IRDye 800 donkey anti-mouse IgG and nuclear marker DRAQ-5 (Thermo Fisher Scientific). Detection and quantitation were performed with the Odyssey Infrared Imager (Li-Cor Biosciences, Lincoln, NE, USA).
(§3) L6-GLUT4 myotubes overexpressing SHIP2 were treated and glucose uptake performed as described in C. […] Time point 15 min indicates the amount of HA detected on the cells after 15 min internalization.

[2] = target: T1, His-tagged human SHIP2 phosphatase domain (Homo sapiens, UniProt O15357); experiment: Malachite green phosphate assay, recombinant SHIP2 phosphatase domain (High Throughput Biomedicine Unit, 384-well); format: biochemical; details: for inhibition at 100 µM: inhibitors at 100 µM concentration, read-out: SHIP2 Inhibition efficiency; for IC50: purified His-tagged phosphatase domain, 100 µM PI(3,4,5)P3
T1 construct: we produced a His-tagged human SHIP2 phosphatase domain; His; made in house
T1 sequence (O15357 419-732 limits assumed): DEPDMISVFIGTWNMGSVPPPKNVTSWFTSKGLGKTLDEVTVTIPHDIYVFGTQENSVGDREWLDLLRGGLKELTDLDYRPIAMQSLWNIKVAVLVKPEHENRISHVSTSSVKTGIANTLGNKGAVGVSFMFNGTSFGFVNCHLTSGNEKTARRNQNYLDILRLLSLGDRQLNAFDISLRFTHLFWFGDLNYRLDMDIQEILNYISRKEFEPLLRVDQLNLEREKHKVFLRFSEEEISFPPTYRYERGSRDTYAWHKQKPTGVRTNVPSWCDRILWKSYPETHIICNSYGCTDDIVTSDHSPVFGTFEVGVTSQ
Procedure: (§4) Recombinant His-tagged human SHIP2 and SHIP1 phosphatase domains were produced as previously described ([17]). […] Immunocomplexes were bound to protein G-Sepharose beads at +4°C for 2 h and washed 3 times with malachite green phosphate assay buffer {10 mM 4-(2-hydroxyethyl)-1-piperazineethanesulfonic acid (HEPES), pH 7.25, 6 mM MgCl2, 0.1% 3-[(3-cholamidopropyl)dimethylammonio]-1-propanesulfonate (CHAPS), 250 mM sucrose, and 0.25 mM EDTA}.
(§5) The catalytic activities of the recombinant SHIP2 and SHIP1 phosphatase domains were determined by malachite green phosphate assay at the High Throughput Biomedicine Unit (University of Helsinki) using D-myo-PI(3,4,5)P3 (Echelon Biosciences, Salt Lake City, UT, USA). Different volumes, resulting in desired final concentrations of inhibitors, were transferred to the wells of 384-well plates by using the Echo550 acoustic dispenser (Labcyte, San Jose, CA, USA). Recombinant protein (100 ng) in reaction buffer {10 mM HEPES, pH 7.25, 6 mM MgCl2, 0.1% CHAPS, 250 mM sucrose, and 0.25 mM EDTA} was placed in each well (7.5 µl), and the plates were preincubated at room temperature for 15 min. The phosphatase reaction was started by adding PI(3,4,5)P3 diluted in the reaction buffer (7.5 µl) to each well to reach a final concentration of 100 µM PI(3,4,5)P3 in the 15 µl reaction volume. The plates were incubated at room temperature for 20 min, after which, 15 µl BIOMOL green reagent (Biomol, Plymouth Meeting, PA, USA) was added to each well, and then the plates were incubated for another 25 min at room temperature. Absorbance was measured at 620 nm using a Pherastar FS plate reader (BMG Labtech, Offenburg, Germany). For the manual malachite green phosphate assay in 96-well plates [see Fig. 1; and activity measurement of phosphatase and tensin homolog (PTEN; Signalchem, Richmond, BC, Canada)], the reaction volume was increased to 50 µl, and 100 µl Biomol Green Reagent was added. The catalytic activity of SHIP2 immunoprecipitated from cell and tissue lysates was determined as in Saurus et al. ([22]), omitting SHIP2 inhibitors in lysis buffer, immunoprecipitation reaction, wash, and assay buffers. AS1949490 was synthesized, as described in Supplemental Fig. S1A, or purchased from Tocris Bioscience (Bristol, United Kingdom).

[3] = target: T2, His-tagged human SHIP1 phosphatase domain (Homo sapiens, UniProt Q92835); experiment: Malachite green phosphate assay, recombinant SHIP1 phosphatase domain (High Throughput Biomedicine Unit); format: biochemical; details: for inhibition at 100 µM: inhibitors at 100 µM concentration, read-out: SHIP1 Inhibition efficiency; for IC50: purified His-tagged phosphatase domain
T2 construct: Recombinant His-tagged human SHIP2 and SHIP1 phosphatase domains were produced as previously described; His; made in house
T2 sequence (Q92835 399-715 limits assumed): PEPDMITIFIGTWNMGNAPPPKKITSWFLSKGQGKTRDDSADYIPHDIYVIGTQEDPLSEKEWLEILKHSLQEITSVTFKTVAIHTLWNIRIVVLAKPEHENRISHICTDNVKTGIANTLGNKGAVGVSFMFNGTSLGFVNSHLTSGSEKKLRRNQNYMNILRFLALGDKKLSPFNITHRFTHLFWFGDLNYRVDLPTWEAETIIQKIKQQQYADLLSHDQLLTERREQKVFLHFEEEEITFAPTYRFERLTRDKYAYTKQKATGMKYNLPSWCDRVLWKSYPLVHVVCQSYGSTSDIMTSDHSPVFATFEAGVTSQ
Procedure: as §4, §5

db/db mice = details: cited from earlier work
L6-GLUT4 myotubes = experiment: Glucose uptake assay in L6-GLUT4 myotubes; format: cell-based, rat; details: insulin 100 nM, 15 min; serum-starved
Procedure: as §1, §2, §3

[4] = test system: HA-GLUT4-GFP at the plasma membrane of L6-GLUT4 cells; experiment: On-Cell Western and HA-GLUT4-GFP endocytosis assay in L6-GLUT4 cells; format: cell-based, rat; details: insulin 100 nM, 15 min
Procedure: as §2
C) Knockdown of SHIP2 reduces metformin-induced glucose uptake. […] L6-GLUT4 myotubes overexpressing SHIP2 were treated and glucose uptake performed as described in C. […] Time point 15 min indicates the amount of HA detected on the cells after 15 min internalization.

inhibition at 100 µM [2] [%]	IC50 [2] [µM]	inhibition at 100 µM [3] [%]	IC50 [3] [µM]	Compound	other results
				NC(=O)c1ncn([C@@H]2O[C@H](CO)[C@@H](O)[C@H]2O)c1N [AICAR, 5-aminoimidazole-4-carboxamide ribonucleoside]	glucose uptake in podocytes ([1]; AICAR 1 mM, 20–24 h, alone): failed to increase; glucose uptake in podocytes, insulin combined with AICAR ([1]; AICAR 1 mM, 20–24 h plus insulin 200 nM, 15 min): failed to increase
76.6	6.2	30	24.6	CC(=O)O[C@]1(C(C)=O)CC[C@H]2[C@@H]3C=C(C)C4=CC(=O)CC[C@]4(C)[C@H]3CC[C@@]21C [Megestrol acetate, 17-(acetyloxy)-6-methylpregna-4,6-diene-3,20-dione]	
52.9	8.8	11.4	21.2	Sc1ncnc2nc[nH]c12 [Mercaptopurine, 3,7-dihydropurine-6-thione]	
				O=C(Cc1c(F)cccc1F)Nc1cc(OCc2ccc(Cl)cc2)ccn1 [N-[4-(4-chlorobenzyloxy)pyridin-2-yl]-2-(2,6-difluorophenyl)-acetamide]	PCK1 expression in db/db mice (db/db mice): reduce
44.9	9	29.9	> 50	Nc1nc2nc[nH]c2c(=S)[nH]1 [Thioguanine, 2-Amino-1H-purine-6(7H)-thione]	
				Insulin: insulin used to stimulate cells (100 or 200 nM, 15 min)	increase in glucose uptake in L6-GLUT4 cells (L6-GLUT4 myotubes): 20%; glucose uptake in podocytes ([1]; insulin 200 nM, 15 min): did not respond; decrease in amount of HA-GLUT4-GFP on the PM after 15 min uptake (endocytosis) [4]: 20%
